Values quoted from earlier work as cited in patent EP1932526A1, “Morin, a new inhibitor of microbial hyaluronate lyase” (Leibniz-Institut für Naturstoff-Forschung und …, priority 2006, dated 2008).

Conditions: species and route not given

O=c1c(O)c(-c2ccc(O)cc2O)oc2cc(O)cc(O)c12 [morin, 2',3,4',5,7-pentahydroxyflavone]
LD50 value: 555 mg/kg
